Legend:
[1] = tested on: skin (site on the subject's forearm); assay: Study 2: minimum skin temperature after spraying coolant for 3 seconds from 12 inches; assay type: in vivo, human; conditions: spray time 3 seconds; for Minimum temperature for site A, MEAN ± SD / Minimum temperature for site A: site A (forearm); for Minimum temperature for site A, MEAN ± SD / Minimum temperature for site B, MEAN ± SD: mean of 15 subjects, in °C (unit assumed); for Minimum temperature for site B, MEAN ± SD / Minimum temperature for site B: site B (forearm, different from A)
Description: (§1) Tables 1 and 5 describe the experimental conditions in accordance with the procedural steps described above. The only difference between Table 1 and Table 5 and between Study 1 and Study 2 is that in Study 1 the spray time was five seconds, whereas in Study 2 the spray time was 3 seconds.
(§2) Tables 2 and 6 describe the subjects chosen including their normal skin temperature, the sex, race, age, weight and height of the subjects.

[2] = tested on: skin (site on the subject's forearm); assay: Study 1: minimum skin temperature after spraying coolant for 5 seconds from 12 inches; assay type: in vivo, human; conditions: spray time 5 seconds; for Minimum temperature for site A, MEAN ± STANDARD DEVIATION / Minimum temperature for site A: site A (forearm); for Minimum temperature for site A, MEAN ± STANDARD DEVIATION / Minimum temperature for site B, MEAN ± STANDARD DEVIATION: mean of 5 subjects, in °C (unit assumed); for Minimum temperature for site B, MEAN ± STANDARD DEVIATION / Minimum temperature for site B: site B (forearm, different from A)
Description: as §1, with “seconds. Comparison is made between various coolants including ethylchloride at room temperature, ethylchloride at 11° C., Fluorimethane® at room temperature, Fuorimethane® at 11° C. and mixtures of HFC 152a and HFC 134a.” for “seconds.”
as §2

[3] = subject code 1, in °C (unit assumed)
[4] = subject code 2, in °C (unit assumed)
[5] = subject code 3, in °C (unit assumed)
[6] = subject code 4, in °C (unit assumed)
[7] = subject code 5, in °C (unit assumed)
[8] = subject code 6, in °C (unit assumed)
[9] = subject code 7, in °C (unit assumed)
[10] = subject code 8, in °C (unit assumed)
[11] = subject code 9, in °C (unit assumed)
[12] = subject code 10, in °C (unit assumed)
[13] = subject code 11, in °C (unit assumed)
[14] = subject code 12, in °C (unit assumed)
[15] = subject code 13, in °C (unit assumed)
[16] = subject code 14, in °C (unit assumed)
[17] = subject code 15, in °C (unit assumed)
[18] = subject 1, in °C (unit assumed)
[19] = subject 2, in °C (unit assumed)
[20] = subject 3, in °C (unit assumed)
[21] = subject 4, in °C (unit assumed)
[22] = subject 5, in °C (unit assumed)

## CCCl [EC, Ethyl chloride]
[1]
  Minimum temperature for site A, MEAN ± SD: −15.70 ± 1.56
  Minimum temperature for site B, MEAN ± SD: −15.92 ± 2.01
[1]; [3]
  Minimum temperature for site A: −16.93
  Minimum temperature for site B: −17.99
[1]; [4]
  Minimum temperature for site A: −14.64
  Minimum temperature for site B: −17.03
[1]; [5]
  Minimum temperature for site A: −13.78
  Minimum temperature for site B: −13.60
[1]; [6]
  Minimum temperature for site A: −14.86
  Minimum temperature for site B: −16.89
[1]; [7]
  Minimum temperature for site A: −15.34
  Minimum temperature for site B: −15.33
[1]; [8]
  Minimum temperature for site A: −14.75
  Minimum temperature for site B: −12.73
[1]; [9]
  Minimum temperature for site A: 16.70
  Minimum temperature for site B: −15.93
[1]; [10]
  Minimum temperature for site A: −18.76
  Minimum temperature for site B: −18.79
[1]; [11]
  Minimum temperature for site A: −15.46
  Minimum temperature for site B: −12.08
[1]; [12]
  Minimum temperature for site A: −16.53
  Minimum temperature for site B: −14.03
[1]; [13]
  Minimum temperature for site A: −14.68
  Minimum temperature for site B: −18.32
[1]; [14]
  Minimum temperature for site A: −13.59
  Minimum temperature for site B: −16.52
[1]; [15]
  Minimum temperature for site A: −14.52
  Minimum temperature for site B: 16.48
[1]; [16]
  Minimum temperature for site A: −16.62
  Minimum temperature for site B: −16.02
[1]; [17]
  Minimum temperature for site A: −18.45
  Minimum temperature for site B: −17.12
[2]
  Minimum temperature for site A, MEAN ± STANDARD DEVIATION: −14.93 ± 2.45
  Minimum temperature for site B, MEAN ± STANDARD DEVIATION: −16.40 ± 0.77
[2]; [18]
  Minimum temperature for site A: −13.22
  Minimum temperature for site B: −16.87
[2]; [19]
  Minimum temperature for site A: −16.87
  Minimum temperature for site B: −15.78
[2]; [20]
  Minimum temperature for site A: −17.56
  Minimum temperature for site B: −15.73
[2]; [21]
  Minimum temperature for site A: −11.72
  Minimum temperature for site B: −16.12
[2]; [22]
  Minimum temperature for site A: −15.26
  Minimum temperature for site B: −17.50

## CCCl [ECC, Ethyl chloride]
[1]
  Minimum temperature for site A, MEAN ± SD: −16.12 ± 2.13
  Minimum temperature for site B, MEAN ± SD: −15.54 ± 3.33
[1]; [3]
  Minimum temperature for site A: −17.89
  Minimum temperature for site B: −12.79
[1]; [4]
  Minimum temperature for site A: −17.54
  Minimum temperature for site B: −17.73
[1]; [5]
  Minimum temperature for site A: −14.82
  Minimum temperature for site B: −11.70
[1]; [6]
  Minimum temperature for site A: −13.46
  Minimum temperature for site B: −16.21
[1]; [7]
  Minimum temperature for site A: −17.04
  Minimum temperature for site B: −15.84
[1]; [8]
  Minimum temperature for site A: −17.18
  Minimum temperature for site B: −15.32
[1]; [9]
  Minimum temperature for site A: −13.22
  Minimum temperature for site B: −10.04
[1]; [10]
  Minimum temperature for site A: −13.10
  Minimum temperature for site B: −20.86
[1]; [11]
  Minimum temperature for site A: −18.11
  Minimum temperature for site B: −16.69
[1]; [12]
  Minimum temperature for site A: −17.63
  Minimum temperature for site B: −18.07
[1]; [13]
  Minimum temperature for site A: −15.56
  Minimum temperature for site B: −18.65
[1]; [14]
  Minimum temperature for site A: −17.00
  Minimum temperature for site B: −10.58
[1]; [15]
  Minimum temperature for site A: −13.13
  Minimum temperature for site B: −12.08
[1]; [16]
  Minimum temperature for site A: −16.26
  Minimum temperature for site B: −17.86
[1]; [17]
  Minimum temperature for site A: −19.80
  Minimum temperature for site B: −18.69
[2]
  Minimum temperature for site A, MEAN ± STANDARD DEVIATION: −15.59 ± 2.50
  Minimum temperature for site B, MEAN ± STANDARD DEVIATION: −18.41 ± 1.92
[2]; [18]
  Minimum temperature for site A: −15.80
  Minimum temperature for site B: −19.22
[2]; [19]
  Minimum temperature for site A: −11.32
  Minimum temperature for site B: −15.56
[2]; [20]
  Minimum temperature for site A: −17.81
  Minimum temperature for site B: −18.71
[2]; [21]
  Minimum temperature for site A: −16.19
  Minimum temperature for site B: −17.80
[2]; [22]
  Minimum temperature for site A: −16.84
  Minimum temperature for site B: −20.75

Reference: patent publication US6737041B1, “Non-ozone depleting vapocoolants” (University of Cincinnati, priority 1993, dated 2004)
